Consider six compounds from patent US4386073A, “Tripeptides acting on the central nervous system and a process for the preparation thereof” (Patentbureau DANUBIA, priority 1979, dated 1983).

In one assay the test system is TSH. Nature of the assay: Hormonal activity (TSH effect) on rats. To be noted: 20 mg/kg i.v., plasma TSH by radioimmune assay 15 min after treatment, relative activity, TRH = 100%. The class given is in vivo, rat (male Wistar). As for the experimental part: (6) Hormonal activity (TSH effect) on rats
The tests were performed on groups of 7 or 8 male Wistar rats each, weighing 200 g. The animals were treated intravenously with 20 mg/kg of TRH or a tripeptide under examination. The TSH reaction of the animals was evaluated 15 minutes after this treatment, by subjecting the blood plasma to radioimmune assay. The relative activities were calculated by the four-point method using a TPA 101 computer, and the activity of TRH was regarded as 100%.

Assay [1] concerns L-Dopa-induced locomotive activity. Nature of the assay: Potentiation of locomotive activity induced on mice by L-Dopa. The class given is in vivo. To be noted: compound 20 mg/kg i.p., percent related to TRH; for Potentiation of the locomotive effect of L-Dopa, % after 30': Pargyline 40 mg/kg i.p., L-Dopa 100 mg/kg i.p., 30 min; for Potentiation of the locomotive effect of L-Dopa, % after 60': 60 min; for Potentiation of the locomotive effect of L-Dopa, % after 90': 90 min. The protocol:
(2) Potentiation of locomotive activity induced on mice by L-Dopa (see The Thyroid Axis, Drugs and Behavior, p. 116, A. J. Prage Jr., Raven Press, New York, 1974)
The tests were performed on groups of 15 male mice each, weighing 18 to 22 g.
First, the animals were treated intraperitoneally with 40 mg/kg of N-methyl-N-propargyl-benzylamine (Pargyline), and then an intraperitoneal dosage of 20 mg/kg of TRH or a TRH-analogue was introduced, followed by an intraperitoneal dosage of 100 mg/kg of L-Dopa. The locomotive activity of the animals was recorded 30, 60 and 90 minutes after this treatment, and the level of potentiation was expressed in percents related to the results observed with TRH.

The next assay deals with ethanol-induced sleeping. The assay can be described thus: Ethanol narcosis. The class given is in vivo, CFLP (LATI) mice. The note with it: mice, ethanol 4.5 g i.p., compound 20 mg/kg i.p. 10 min later; control sleeping 46.9 ± 2.17 min. As for the experimental part:
(5) Ethanol narcosis (see J. M. Cott et al.: J. Pharm. Exp. Ther. 196, 594/1976/) The tests were performed on groups of 20 CFLP (LATI) mice of both sexes, each weighing 18 to 22 g. 4.5 g of ethanol were introduced intraperitoneally into the animals, and 10 minutes later the animals were treated intraperitoneally with 20 mg/kg of the tripeptide under examination. The sleeping periods of the animals were recorded, averages were calculated for the individual groups, and the results were expressed as percents related to the control group.

In another assay the test system is Reserpine hypothermy. Nature of the assay: Reserpine hypothermy-reversing effect on mice. The class given is in vivo. The note with it: average of 10 animals; for Reserpine hypothermy reversing effect, rectal temperature obs. time 1 h: 1 hour after 20 mg/kg of the tripeptide; for Reserpine hypothermy reversing effect, rectal temperature obs. time 2 h: 2 hours after 20 mg/kg of the tripeptide; for Reserpine hypothermy reversing effect, rectal temperature res.: 16 hours after reserpine 5 mg/kg i.p., before the tripeptide; for Reserpine hypothermy reversing effect, rectal temperature norm.: baseline prior to administration of reserpine. The protocol: (3) Reserpine hypothermy-reversing effect on mice (see B. M. Askew: Life Sci. 2, 725-730/1963/)
The tests were performed on groups of 10 male mice each, weighing 18 to 22 g. Reserpine was administered into the animals in an intraperitoneal dosage of 5 mg/kg, and 16 hours later the animals were treated with 20 mg/kg of TRH or a tripeptide under examination.
The rectal temperature of the animals was measured prior to the administration of reserpine (marked by "norm." in Table 1), 16 hours after the administration of reserpine (marked by "res." in Table 1), furthermore 1 and 2 hours after the administration of the tripeptide (marked by "obs.time" in Table 1). The data listed in Table 1 are the averages of the temperatures observed on the 10 animals.

In assay [2] the test system is Haloperidol-induced catalepsy. The assay can be described thus: Inhibition of Haloperidol-induced catalepsy on rats. To be noted: Haloperidol 40 mg/kg s.c., test compound i.v. 120 min later, probit analysis, at the time given. The class given is in vivo, rat (male Wistar). As for the experimental part:
(1) Inhibition of Haloperidol-induced catalepsy on rats (see J. Delay and P. Deniker: Compt. Rend. Congr. Med. Alenistes Neurologistes, 19, 497, Luxembourg, 1952)
The tests were performed on male Wistar rats weighing 160 to 180 g.
40 mg/kg of 4-(p-chlorophenyl)-1-(3-/p-fluorobenzoyl/-propyl)-piperidin-4-ol (Haloperi dol) were administered subcutaneously into the animals, and 120 minutes after this treatment the animals were checked for the appearance of catalepsy. The rats were divided into groups of 10 animals each, and treated intravenously with TRH or the new TRH analogues. The animals belonging to the control group received physiological saline. The catalepsy-suspending effects of the individual compounds were determined 15, 30, 60, 90 and 120 minutes after the treatment. The animals that had not changed their position for 30 seconds after placing their fore-paw onto a 7 cm high column were regarded as cataleptic.

Assay [3] concerns hexobarbital-induced sleeping. The assay can be described thus: Influencing the duration of sleeping caused by hexobarbital. Format: in vivo. To be noted: mice, hexobarbital sodium 60 mg/kg i.v., compound 20 mg/kg i.p. 10 min later; control sleeping 38.4 ± 1.36 min. The protocol: (4) Influencing the duration of sleeping caused by hexobarbital The tests were performed on groups of 10 male mice each. The animals were treated intravenously with 60 mg/kg of hexobarbital sodium ([…]®; Bayer), and 10 minutes later 20 mg/kg of TRH or a tripeptide under examination were administered intraperitoneally into the animals. The sleeping times of the animals were recorded, averages were calculated for the individual groups, and the results were expressed as percents related to the control group.

SMILES strings stand for the structures. Where a SMILES comes first, the peptide text is derived from it. [ ]: non-standard residue; d: D form. d(pGlu) = O=C1CC[C@H](C(=O)O)N1

`CC(C)C[C@H](NC(=O)[C@H]1CCC(=O)N1)C(=O)N1CCC[C@H]1C(N)=O` [D-Glp Leu Pro, D-Pyroglutamyl-L-leucyl-L-prolinamide] ([d(pGlu)]-Leu-Pro-NH2) gave a TSH effect in the assay with TSH of 0%. For the same compound, in assay [1], the “Potentiation of the locomotive effect of L-Dopa, % after 30'” value (shortened to “Potentiation … % after 30'”) is recorded as 54%; the “Potentiation of the locomotive effect of L-Dopa, % after 60'” value (from here on “Potentiation … % after 60'”) was 58%; the “Potentiation of the locomotive effect of L-Dopa, % after 90'” value (from here on “Potentiation … % after 90'”) is 115%. The “Decrease of sleeping period (% related to the control animals), Ethanol” value in the assay with ethanol-induced sleeping amounted to 54%. Moreover, in the assay on Reserpine hypothermy, the “Reserpine hypothermy reversing effect, rectal temperature obs. time 1 h” value was 25.8 °C; the “Reserpine hypothermy reversing effect, rectal temperature obs. time 2 h” value stood at 25.6 °C; the “Reserpine hypothermy reversing effect, rectal temperature res.” value was determined as 27.4 °C; the “Reserpine hypothermy reversing effect, rectal temperature norm.” value turned out to be 36.5 °C. Moreover, in assay [2], the “Inhibition of Haloperidol catalepsy ED50” value was determined as 70 mg/kg. Also, the “Decrease of sleeping period (% related to the control animals), Hexobarb.” value in assay [3] was found to be 97%.
For `CC(C)C[C@H](NC(=O)C1CNC(=O)N1)C(=O)N1CCC[C@H]1C(N)=O` (stereo partly drawn) [Kic Leu Pro, L-2-Ketoimidazolidine-4-carbonyl-L-leucyl-L-prolinamide], the TSH effect with TSH is recorded as 0%. In assay [1], the “Potentiation … % after 30'” value is given as 118%; the “Potentiation … % after 60'” value is on record as 70%; the “Potentiation … % after 90'” value is 98%. Also, the “Decrease of sleeping period (% related to the control animals), Ethanol” value in the assay on ethanol-induced sleeping worked out at 69%. For the same compound, in the assay with Reserpine hypothermy, the “Reserpine hypothermy reversing effect, rectal temperature obs. time 1 h” value is 27.7 °C; the “Reserpine hypothermy reversing effect, rectal temperature obs. time 2 h” value was 28.8 °C; the “Reserpine hypothermy reversing effect, rectal temperature res.” value was 24.1 °C; the “Reserpine hypothermy reversing effect, rectal temperature norm.” value is 35.5 °C. Moreover, the “Inhibition of Haloperidol catalepsy ED50” value in assay [2] was 80 mg/kg. Further, the “Decrease of sleeping period (% related to the control animals), Hexobarb.” value in assay [3] was found to be 59%.
In the assay on TSH, `CC(C)C[C@H](NC(=O)C1CCCC(=O)N1)C(=O)N1CCC[C@H]1C(N)=O` (stereo partly drawn) [Kpc Leu Pro, L-6-ketopiperidine-2-carbonyl-L-leucyl-L-prolinamide] yielded a TSH effect of 2.7%. Also, in assay [1], the “Potentiation … % after 30'” value came to 319%; the “Potentiation … % after 60'” value turned out to be 80%; the “Potentiation … % after 90'” value is given as 127%. In addition, the “Decrease of sleeping period (% related to the control animals), Ethanol” value in the assay on ethanol-induced sleeping is 79%. Also, in the assay on Reserpine hypothermy, the “Reserpine hypothermy reversing effect, rectal temperature obs. time 1 h” value stood at 32.0 °C; the “Reserpine hypothermy reversing effect, rectal temperature obs. time 2 h” value was 33.9 °C; the “Reserpine hypothermy reversing effect, rectal temperature res.” value stood at 24.5 °C; the “Reserpine hypothermy reversing effect, rectal temperature norm.” value is 36.3 °C. In assay [2], the “Inhibition of Haloperidol catalepsy ED50” value was determined as 23.5 mg/kg. Besides, the “Decrease of sleeping period (% related to the control animals), Hexobarb.” value in assay [3] amounted to 37%.
Regarding `CCC[C@H](NC(=O)C1CCCC(=O)N1)C(=O)N1CCCC[C@H]1C(N)=O` (stereo partly drawn) [Kpc Nva HPro, L-6-Ketopiperidine-2-carbonyl-L-norvalyl-L-homoprolinamide], in assay [1], the “Potentiation … % after 30'” value is 63%; the “Potentiation … % after 60'” value is on record as 30%; the “Potentiation … % after 90'” value is 108%. Moreover, the “Decrease of sleeping period (% related to the control animals), Ethanol” value with ethanol-induced sleeping was 35%. Moreover, in the assay on Reserpine hypothermy, the “Reserpine hypothermy reversing effect, rectal temperature obs. time 1 h” value came to 26.5 °C; the “Reserpine hypothermy reversing effect, rectal temperature obs. time 2 h” value is 32.2 °C; the “Reserpine hypothermy reversing effect, rectal temperature res.” value was determined as 20.7 °C; the “Reserpine hypothermy reversing effect, rectal temperature norm.” value came to 36.3 °C. In assay [2], the “Inhibition of Haloperidol catalepsy ED50” value was found to be 35.3 mg/kg. Moreover, the “Decrease of sleeping period (% related to the control animals), Hexobarb.” value in assay [3] came to 76%.
The compound `CCC[C@H](NC(=O)C1CCCC(=O)N1)C(=O)N1CCC[C@H]1C(N)=O` (stereo partly drawn) [Kpc Nva Pro, L-6-Ketopiperidine-2-carbonyl-L-norvalyl-L-prolinamide] showed a TSH effect in the assay with TSH of 0%. For the same compound, in assay [1], the “Potentiation … % after 30'” value is 36%; the “Potentiation … % after 60'” value is recorded as 45%; the “Potentiation … % after 90'” value is given as 65%. Moreover, the “Decrease of sleeping period (% related to the control animals), Ethanol” value in the assay on ethanol-induced sleeping is listed as 46%. In the assay with Reserpine hypothermy, the “Reserpine hypothermy reversing effect, rectal temperature obs. time 1 h” value is 33.1 °C; the “Reserpine hypothermy reversing effect, rectal temperature obs. time 2 h” value amounted to 32.5 °C; the “Reserpine hypothermy reversing effect, rectal temperature res.” value is 23.9 °C; the “Reserpine hypothermy reversing effect, rectal temperature norm.” value was 36.3 °C. In assay [2], the “Inhibition of Haloperidol catalepsy ED50” value was found to be 10.6 mg/kg. Moreover, in assay [3], the “Decrease of sleeping period (% related to the control animals), Hexobarb.” value worked out at 51%.
Regarding `NC(=O)[C@@H]1CCCN1C(=O)[C@H](Cc1c[nH]cn1)NC(=O)[C@@H]1CCC(=O)N1` [TRH, L-pyroglutamyl-L-histidyl-L-prolinamide, reference compound], in assay [1], the “Potentiation … % after 60'” value came out at 100% and the “Potentiation … % after 90'” value was found to be 100%. For the same compound, in the assay on ethanol-induced sleeping, the “Decrease of sleeping period (% related to the control animals), Ethanol” value amounted to 35%. Further, the “Reserpine hypothermy reversing effect, rectal temperature obs. time 1 h” value in the assay on Reserpine hypothermy worked out at 35.5 °C. Also, in assay [2], the “Inhibition of Haloperidol catalepsy ED50” value stood at 80 mg/kg. Also, the “Decrease of sleeping period (% related to the control animals), Hexobarb.” value in assay [3] is reported as 56%.
